In patent US8389698B2, “Tanaproget derivatives, metabolites, and uses thereof” (Wyeth LLC, priority 2004, dated 2013):

Tests used:
[1] = test system: alkaline phosphatase activity in T47D cells; experiment: Alkaline phosphatase activity in T47D cells; type: cell-based
Procedure: Tanaproget glucuronides are a prodrug of tanaproget, a first-in-class non-steroidal progesterone receptor agonist for use primarily in contraception. The effect of tanaproget glucuronides on alkaline phosphase activity in T47D cells is analyzed as follows.
Culture medium: DMEM:F12 (1:1) (GIBCO, BRL) supplemented with 5% (v/v) charcoal stripped fetal bovine serum (not heat-inactivated), 100 U/mL penicillin, 100 μg/mL streptomycin, and 2 mM GlutaMax (GIBCO, BRL).
Alkaline phosphatase assay buffer: I. 0.1M Tris-HCl, pH 9.8, containing 0.2% Triton X-100, 0.1M Tris-HCl, pH 9.8, containing 4 mM p-nitrophenyl phosphate (Sigma).
Frozen T47D cells are thawed in a 37° C. water bath and diluted to 280,000 cells/mL in culture medium. To each well in a 96-well plate (Falcon, Becton Dickinson Labware), 180 μl of diluted cell suspension is added.
Twenty μl of reference or test compounds diluted in the culture medium is then added to each well. The cells are incubated at 37° C. in a 5% CO2 humidified atmosphere for 24 hours. For high throughput screening, one concentration of each compound will be tested at 0.3 μg/mL. […]
For reference and test compounds, a dose response curve is generated for dose vs. the rate of enzyme reaction (slope). […] EC50 values are calculated from the retransformed values. […]

[2] = test system: Glusulase (glucuronidase); experiment: Enzymatic hydrolysis of tanaproget glucuronide conjugate in pooled urine by Glusulase; type: in vitro ADME
Procedure: In order to confirm that that the tanaproget glucuronide derivative is a prodrug when delivered to patients, the ability of the glucuronide conjugate to be enzymatically cleaved by a glucuronidase which is native to the gastrointestinal tract in humans was used in the following assay.
Pooled urine samples (4-8 hr) from healthy women were hydrolyzed by Glusulase®. Aliquots (1 mL) of pooled urine were adjusted to pH 5 with 0.5 mL of 0.6 M sodium acetate buffer. The diluted urine was mixed with Glusulase® (9,000 units/mL, 100 μL) and incubated at 37° C. for 1 hr with gentle shaking. The reaction was stopped by the addition of 2 mL of acetone and the precipitate was removed by centrifugation. The supernatant was dried under nitrogen in a TurboVap™ (Caliper Life Sciences, Hopkinton, Mass.).

[3] = Drug related components in plasma; type: in vivo; details: rat, dog, and human plasma
Procedure: (§1) The glucuronide of tanaproget was prepared in male rat liver microsomes, and the structure was identified as a S-glucuronide conjugate by liquid chromatography (LC)/mass spectrometry (MS) and nuclear magnetic resonance (NMR) spectroscopy. […] This S-glucuronide can also be synthetically prepared simultaneously with a N-glucuronide. The two synthetic glucuronides could be separated by HPLC and their structures were all characterized by LC/MS and NMR spectroscopy. In the following scheme, the NSP-989 terminology is used in the place of tanaproget.

[4] = Metabolite identification in liver microsomes; type: in vitro ADME; details: male and female rat, dog, and human liver microsomes
Procedure: as §1
Incubations (100 mL) were performed with tanaproget (40 μM), UDPGA (5 mM), magnesium chloride (10 mM), and male rat liver microsomes (1.5 mg/mL), in 0.1 M potassium phosphate buffer, pH 7.4 at 37° C. The samples were pre-incubated for 1 minute at 37° C., and the reactions were initiated by the addition of UDPGA. The sample was cooled using an ice bath to stop the reaction after 3 hours. Unreacted tanaproget was removed from the samples by two extractions with diethyl ether (200 mL×2).

Cn1c(C#N)ccc1-c1ccc2c(c1)C(C)(C)OC(SC1OC(C(=O)O)C(O)C(O)C1O)=N2 [Tanaproget S-glucuronide, S-(β)-D-glucuronide of tanaproget]
EC50 ([1]; Homo sapiens, 24 hours treatment): 0.1 nM
efficacy as compared to progesterone ([1]; alkaline phosphatase, relative to progesterone): 60%
conversion of glucuronide into tanaproget by Glusulase ([2]; pooled urine (4-8 hr) from healthy women, pH 5, Glusulase 9,000 units/mL, 37° C., 1 hr, HPLC and LC/MS): confirmed the conversion of glucuronide into parent drug tanaproget
conversion of glucuronide into tanaproget in control incubations ([2]; same conditions without Glusulase, or with Glusulase and 10 mM saccharolactone (β-glucuronidase inhibitor)): no conversion of glucuronide conjugate into tanaproget was observed
abundance as drug related component in plasma [3]: major drug related component
abundance as metabolite of tanaproget in liver microsomes [4]: major metabolite
